What is called IC50 is the point on the concentration scale where inhibition reaches its midpoint.

Counter-ions that a name gives are not always drawn.

Assay [1] addresses JAK1 (Homo sapiens (Human), UniProt P23458). Put plainly: Jak biochemical HTRF assay, JAK1. To be noted: HTRF biochemical assay, recombinant GST-tagged catalytic domain; read-out: JAK1 IC50.
The target of assay [2] is JAK2 (Homo sapiens (Human), UniProt O60674). Put plainly: Jak biochemical HTRF assay, JAK2. To be noted: HTRF biochemical assay, recombinant GST-tagged catalytic domain; read-out: JAK2 IC50. (Time-resolved FRET reads energy transfer from a long-lived donor to a nearby acceptor.)
Sequence of JAK2 (O60674 849-1124): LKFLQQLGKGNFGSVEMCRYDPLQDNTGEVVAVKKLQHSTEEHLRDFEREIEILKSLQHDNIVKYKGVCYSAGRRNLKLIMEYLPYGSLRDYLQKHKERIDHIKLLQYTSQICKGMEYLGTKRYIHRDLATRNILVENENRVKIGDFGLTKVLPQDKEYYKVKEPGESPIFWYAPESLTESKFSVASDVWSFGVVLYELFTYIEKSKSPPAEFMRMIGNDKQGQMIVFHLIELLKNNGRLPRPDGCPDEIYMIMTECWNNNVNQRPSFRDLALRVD

Sequence of JAK1 (P23458 875-1153): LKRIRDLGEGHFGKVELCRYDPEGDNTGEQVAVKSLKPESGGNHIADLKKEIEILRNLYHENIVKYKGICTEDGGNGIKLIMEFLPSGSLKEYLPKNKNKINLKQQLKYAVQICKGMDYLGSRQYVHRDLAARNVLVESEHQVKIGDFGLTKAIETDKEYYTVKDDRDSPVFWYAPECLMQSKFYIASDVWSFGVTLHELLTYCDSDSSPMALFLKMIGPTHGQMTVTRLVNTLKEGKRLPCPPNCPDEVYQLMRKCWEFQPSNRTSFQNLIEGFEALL

On to `CC(=O)N1Cc2ccc(Nc3nn([C@H]4CCCC[C@@H]4C#N)c4cc[nH]c(=O)c34)cc2C1` [Example 15-26, (1S,2S)-2-{3-[(2-acetyl-2,3-dihydro-1H-isoindol-5-yl)amino]-4-oxo-4,5-dihydro-1H-pyrazolo[4,3-c]pyridin-1-yl}cyclohexanecarbonitrile], for which the IC50 in assay [1] came out at 0.23 nM; in assay [2], 0.92 nM.

As to `CC(C)(c1ccc(Nc2nn([C@H]3CCCC[C@@H]3C#N)c3cc[nH]c(=O)c23)cc1)n1nccn1` [Example 15-29, (1S,2S)-2-[3-({4-[1-methyl-1-(2H-1,2,3-triazol-2-yl)ethyl]phenyl}amino)-4-oxo-4,5-dihydro-1H-pyrazolo[4,3-c]pyridin-1-yl]cyclohexanecarbonitrile], the half-maximal inhibitory concentration (IC50) in assay [1] is 0.14 nM; in assay [2], 0.24 nM.

Turning to `Cc1cc(Nc2nn([C@H]3CCCC[C@@H]3C#N)c3cc[nH]c(=O)c23)ccc1C(C)(C)n1nccn1` [Example 15-32, (1S,2S)-2-[3-({3-methyl-4-[1-methyl-1-(2H-1,2,3-triazol-2-yl)ethyl]phenyl}amino)-4-oxo-4,5-dihydro-1H-pyrazolo[4,3-c]pyridin-1-yl]cyclohexanecarbonitrile], the results for the IC50 in assay [1] and in assay [2] were 0.26 nM and 0.15 nM, respectively.

Turning to `Cc1cc(Nc2nn([C@H]3CCCC[C@@H]3C#N)c3cc[nH]c(=O)c23)ccc1C(C)(C)n1ccnn1` [Example 15-33, (1S,2S)-2-[3-({3-methyl-4-[1-methyl-1-(1H-1,2,3-triazol-1-yl)ethyl]phenyl}amino)-4-oxo-4,5-dihydro-1H-pyrazolo[4,3-c]pyridin-1-yl]cyclohexanecarbonitrile], the half-maximal inhibitory concentration (IC50) in assay [1] and in assay [2] was 0.17 nM in each case.

Regarding `N#C[C@H]1CCCC[C@@H]1n1nc(Nc2ccc3c(c2)CN(C2CCCCC2)C3=O)c2c(=O)[nH]ccc21` [Example 15-34, (1S,2S)-2-{3-[(2-cyclohexyl-1-oxo-2,3-dihydro-1H-isoindol-5-yl)amino]-4-oxo-4,5-dihydro-1H-pyrazolo[4,3-c]pyridin-1-yl}cyclohexanecarbonitrile], the IC50 in assay [1] stood at 0.082 nM; in assay [2], 0.62 nM.

In the case of `CC(C)(C)OC(=O)[C@H]1CC[C@@H](N2Cc3cc(Nc4nn([C@H]5CCCC[C@@H]5C#N)c5cc[nH]c(=O)c45)ccc3S2(=O)=O)CC1` [Example 15-43, (1S,4S)-tert-butyl 4-(5-((1-((1S,2S)-2-cyanocyclohexyl)-4-oxo-4,5-dihydro-1H-pyrazolo[4,3-c]pyridin-3-yl)amino)-1,1-dioxidobenzo[d]isothiazol-2(3H)-yl)cyclohexanecarboxylate], the IC50 in assay [1] is 0.22 nM; in assay [2] it was 1.2 nM.

For `N#C[C@H]1CCCC[C@@H]1n1nc(Nc2ccc3c(c2)CN(C2CCOCC2)C3=O)c2c(=O)[nH]ccc21` [Example 15-59, (1S,2S)-2-(4-oxo-3-{[1-oxo-2-(tetrahydro-2H-pyran-4-yl)-2,3-dihydro-1H-isoindol-5-yl]amino}-4,5-dihydro-1H-pyrazolo[4,3-c]pyridin-1-yl)cyclohexanecarbonitrile], the values for the concentration for half-maximal inhibition (IC50) in assay [1] and in assay [2] were 0.078 nM and 0.41 nM, respectively.

Turning to `N#C[C@H]1CCCC[C@@H]1n1nc(Nc2ccc3c(c2)CN(C2CCSCC2)C3=O)c2c(=O)[nH]ccc21` [Example 15-60, (1S,2S)-2-(4-oxo-3-{[1-oxo-2-(tetrahydro-2H-thiopyran-4-yl)-2,3-dihydro-1H-isoindol-5-yl]amino}-4,5-dihydro-1H-pyrazolo[4,3-c]pyridin-1-yl)cyclohexanecarbonitrile], the figures for the IC50 in assay [1] and in assay [2] were 0.11 nM and 0.51 nM, respectively.

As for `CC1(N2Cc3cc(Nc4nn([C@H]5CCCC[C@@H]5C#N)c5cc[nH]c(=O)c45)ccc3C2=O)CCOCC1` [Example 15-63, (1S,2S)-2-(3-{[2-(4-methyltetrahydro-2H-pyran-4-yl)-1-oxo-2,3-dihydro-1H-isoindol-5-yl]amino}-4-oxo-4,5-dihydro-1H-pyrazolo[4,3-c]pyridin-1-yl)cyclohexanecarbonitrile], the values for the half-maximal inhibitory concentration (IC50) in assay [1] and in assay [2] were 0.062 nM and 0.14 nM, respectively.

As for `CC1(N2Cc3cc(Nc4nn([C@H]5CCCC[C@@H]5C#N)c5cc[nH]c(=O)c45)ccc3S2(=O)=O)CCOCC1` [Example 15-64, (1S,2S)-2-(3-{[2-(4-methyltetrahydro-2H-pyran-4-yl)-1,1-dioxido-2,3-dihydro-1,2-benzisothiazol-5-yl]amino}-4-oxo-4,5-dihydro-1H-pyrazolo[4,3-c]pyridin-1-yl)cyclohexanecarbonitrile], the IC50 stood at 0.069 nM in assay [1] and 0.17 nM in assay [2].

In the case of `CC1(N2Cc3cc(Nc4nn([C@H]5CCCC[C@@H]5C#N)c5cc[nH]c(=O)c45)ccc3S2(=O)=O)CCC(F)(F)CC1` [Example 15-73, (1S,2S)-2-(3-{[2-(4,4-difluoro-1-methylcyclohexyl)-1,1-dioxido-2,3-dihydro-1,2-benzisothiazol-5-yl]amino}-4-oxo-4,5-dihydro-1H-pyrazolo[4,3-c]pyridin-1-yl)cyclohexanecarbonitrile], the 50% inhibitory concentration (IC50) in assay [1] was 0.28 nM; in assay [2], 0.55 nM.

In the case of `N#C[C@H]1CCCC[C@@H]1n1nc(Nc2ccc(C(=O)O)cc2)c2c(=O)[nH]ccc21` [Example 16-1, 4-((1-((1S,2S)-2-Cyanocyclohexyl)-4-oxo-4,5-dihydro-1H-pyrazolo[4,3-c]pyridin-3-yl)amino)benzoic acid, HCl], the IC50 in assay [1] turned out to be 0.16 nM; in assay [2], 3.4 nM.

Take `N#C[C@H]1CCCC[C@@H]1n1nc(Nc2ccc3c(c2)CN([C@H]2CC[C@@H](C(=O)O)CC2)S3(=O)=O)c2c(=O)[nH]ccc21` [Example 16-2, (1S,4S)-4-(5-((1-((1S,2S)-2-cyanocyclohexyl)-4-oxo-4,5-dihydro-1H-pyrazolo[4,3-c]pyridin-3-yl)amino)-1,1-dioxidobenzo[d]isothiazol-2(3H)-yl)cyclohexanecarboxylic acid]: the half-maximal inhibitory concentration (IC50) in assay [1] was 0.069 nM; in assay [2], 0.47 nM.

Turning to `N#C[C@H]1CCCC[C@@H]1n1nc(Nc2ccc3c(c2)CN([C@H]2CC[C@H](C(=O)O)CC2)S3(=O)=O)c2c(=O)[nH]ccc21` [Example 16-3, (1R,4R)-4-(5-((1-((1S,2S)-2-cyanocyclohexyl)-4-oxo-4,5-dihydro-1H-pyrazolo[4,3-c]pyridin-3-yl)amino)-1,1-dioxidobenzo[d]isothiazol-2(3H)-yl)cyclohexanecarboxylic acid], the IC50 in assay [1] was 0.059 nM; in assay [2], 0.14 nM.

`CC1c2ccc(Nc3nn([C@H]4CCCC[C@@H]4C#N)c4cc[nH]c(=O)c34)cc2CN1C(=O)OC(C)(C)C` (stereo partly drawn) [Example 18-1, tert-Butyl 5-((1-((1S,2S)-2-cyanocyclohexyl)-4-oxo-4,5-dihydro-1H-pyrazolo[4,3-c]pyridin-3-yl)amino)-1-methylisoindoline-2-carboxylate]: the half-inhibitory concentration (IC50) in assay [1] amounted to 1.3 nM; in assay [2], 5.4 nM.

For `N#C[C@H]1CCCC[C@@H]1n1nc(Nc2ccc([C@@H]3C[C@H]4CC[C@@H](C3)N4)cc2)c2c(=O)[nH]ccc21` [Example 20-1, (1S,2S)-2-(3-((4-((1R,3S,5S)-8-azabicyclo[3.2.1]octan-3-yl)phenyl)amino)-4-oxo-4,5-dihydro-1H-pyrazolo[4,3-c]pyridin-1-yl)cyclohexanecarbonitrile hydrochloride], the results for the concentration for half-maximal inhibition (IC50) in assay [1] and in assay [2] were 0.38 nM and 0.57 nM, respectively.

As for `N#C[C@H]1CCCC[C@@H]1n1nc(Nc2ccc([C@H]3C[C@H]4CC[C@@H](C3)N4)cc2)c2c(=O)[nH]ccc21` [Example 20-2], the half-inhibitory concentration (IC50) in assay [1] and in assay [2] was 0.39 nM throughout.

Values taken from US9725445B2, “Cycloalkyl nitrile pyrazolo pyridones as Janus kinase inhibitors” (Merck Sharp & Dohme Corp., priority 2013, dated 2017).
